Assays:
[1] = test system: T cells of PBMCs from lupus patients; conditions: randomly selected lupus patients; cited from earlier work
[2] = test system: human DR molecules; conditions: cited from earlier work
[3] = test system: CD4+ effector T cells; assay type: cell-based, human

| Sequence | lupus patients whose PBMCs contain T cells that proliferate in response to the peptide [1] | binding to soluble HLA class II molecules [2] | suppression of activated effector CD4+ T cells (CD4+/CD25-high/FoxP3-intermediate) reacting to Tetanus Toxoid [3] | suppression of proliferation of CD4+ effector T cells (CFSE) [3] |
| --- | --- | --- | --- | --- |
| RIHMVYSKRSGKPRGYAFIEY (listed as Homo sapiens) [peptide 131-151] | 40% | binds to a large panel of human DR molecules | – | – |
| KTLYLQMNSLRAEDTAKH (listed as Homo sapiens) [SEQ ID NO: 7] | – | – | strongly suppressed | Suppressed |

Source: patent US20210308182A1, “REGULATORY T CELL EPITOPES” (EpiVax Inc., priority 2020, published 2021)
